Paper PMC10714400, “Antimicrobial Peptide–Peptoid Hybrids with and without Membrane Disruption” (ACS Infectious Diseases, 2023)
Where two headings read alike, the source gives them in different places.

Assays:
[1] = tested on: A. baumannii ATCC19606; details: Table S2
Method: (§1) Antimicrobial activity was assayed for all the peptide–peptoids against P. aeruginosa PAO1, K. pneumoniae NCTC418, E. coli W3110, A. baumannii ATCC 19606, methicillin-resistant S. aureus COL (MRSA), and for selected peptides on P. aeruginosa PA14 and the polymyxin-B-resistant derivatives PA14 4.13, PA14 4.18, PA14 2P4, as well as the clinical isolates ZEM-1A and ZEM9A, K. pneumoniae OXA-48, S. aureus Newman, Enterobacter cloacae, Stenotrophomonas maltophilia, Burkholderia cenocepacia, and Staphylococus epidermidis. To determine the Minimal Inhibitory Concentration (MIC), the Broth Microdilution method was used.[72] A colony of bacteria was picked and grown in LB medium overnight at 37 °C.
(§2) To each well was finally added 4 μL of the diluted bacterial suspension (see above), corresponding to approximately 5 × 10^5 CFU. For each test, two columns of the plate were kept for sterility control (medium only), growth control (medium with bacterial inoculum, no compound). The positive control, Polymyxin B (starting with a concentration of 16 μg/mL) in MH medium with bacterial inocula, was introduced in the two lines of the plate. The plates were incubated at 37 °C for ca. 18 h under static conditions. Next, 15 μL of 3-(4,5-dimethylthiazol-2-yl)-2,5-diphenyltetrazolium bromide (MTT)[73] (1 mg/mL in sterilized MilliQ deionized water) were added to each well, and the plates were incubated for 20–30 min at room temperature. The minimal inhibitory concentration (MIC) was defined as the lowest concentration of the compound that inhibits the visible growth of the tested bacteria (yellow) with the unaided eye.

[2] = tested on: E. cloacae
Method: as §1, §2

[3] = tested on: E. coli W3110
Method: as §1, §2

[4] = tested on: K. pneumoniae NCTC418; details: Table S2
Method: as §1, §2

[5] = tested on: K. pneumoniae OXA-48
Method: as §1, §2

[6] = tested on: P. aeruginosa PAO1
Method: as §1, §2

[7] = tested on: PA14 2P4 (pmrB); details: Table S3; […] MH at pH 8.5
Method: as §1, §2

[8] = tested on: PA14 4.13 (phoQ)
Method: as §1, §2

[9] = tested on: PA14 4.18 (pmrB)
Method: as §1, §2

[10] = tested on: S. aureus COL (MRSA)
Method: as §1, §2

[11] = tested on: ZEM-1A (clinical MDR P. aeruginosa isolate)
Method: as §1, §2

[12] = tested on: ZEM9A (clinical MDR P. aeruginosa isolate)
Method: as §1, §2

[13] = tested on: human red blood cells (hRBC); assay: Minimum hemolytic concentration (MHC); assay type: cell-based; details: hRBC, 10 mM phosphate buffer, 150 mM NaCl, pH 7.4, 25 °C, 4 h
Text: We also measured minimal hemolysis concentrations (MHC) on human red blood cells by serial 2-fold dilution as an indication of toxicity against eukaryotic cells (Table 1).

[14] = tested on: B. cenocepacia; details: MH pH 7.4, 16–20 h at 37 °C
Method: as §1
as §2, with “The plates were incubated at 37 °C for ca. 18 h under static conditions.” left out

[15] = tested on: P. aeruginosa PA14
Method: as §1
as §2, with “The plates were incubated at 37 °C for ca. 18 h under static conditions.” left out

[16] = tested on: S. aureus Newman
Method: as §1
as §2, with “The plates were incubated at 37 °C for ca. 18 h under static conditions.” left out

[17] = tested on: S. epidermis
Method: as §1
as §2, with “The plates were incubated at 37 °C for ca. 18 h under static conditions.” left out

[18] = tested on: S. maltophilia
Method: as §1
as §2, with “The plates were incubated at 37 °C for ca. 18 h under static conditions.” left out

[19] = tested on: P. aeruginosa PAO1; assay: Bacterial count after treatment, before TEM sample preparation; assay type: cell-based, Pseudomonas aeruginosa; details: P. aeruginosa PAO1, […] MH pH 8.5, 10x MIC
Method: (§3) Just before the samples were further prepared for the microscopy, surviving bacteria were quantified by plating 10-fold dilutions of samples in sterilized normal saline (NaCl 0.9%) on LB agar plates. […] The assay was performed in triplicate. Each bacteria sample was centrifuged at 12,000 rpm for 3 min, and the supernatant was discarded. The samples were then further processed and imaged using our previously described protocol.[64]
8. Transmission electron microscopy (TEM)
Table S4: Bacterial counts, 2 hours after treatment, before TEM sample preparation. Data represents triplicates.
Bacteria count after treatment at 10x MIC and 2 h of incubation at 37 °C
Control (non-treated cells) 1 × 10^8 CFU (100)

[20] = tested on: P. aeruginosa PAO1; assay: Transmission electron microscopy (TEM); assay type: cell-based, Pseudomonas aeruginosa; details: P. aeruginosa PAO1, 10 × MIC, […] MH at pH 8.5, 2 h at 37 °C
Method: Scale bars are 500 nm and 1 μm. Red arrows: membrane perturbations. Blue arrows: intracellular aggregation. Yellow arrows: empty area within the cell.
as §3

Substance: Polymyxin B [PMB, reference compound]
- MIC A. baumannii ATCC19606 […] 7.4 ([1]; […] MH, pH 7.4): 0.5 µg/mL
- MIC A. baumannii ATCC19606 […] 8.5 ([1]; […] MH, pH 8.5): 0.25 µg/mL
- MIC A. baumannii ATCC19606 Full MH 7.4 ([1]; full MH, pH 7.4): 0.25 µg/mL
- MIC A. baumannii ATCC19606 Full MH 8.5 ([1]; full MH, pH 8.5): 0.25 µg/mL
- MIC E. cloacae ([2]; MH pH 7.4, 16–20 h at 37 °C): 0.5 to 1 µg/mL
- MIC E. cloacae ([2]; Table S3, […] MH at pH 8.5): 1 to 2 µg/mL
- Antibacterial activity as a function of NaCl concentration ([3]; E. coli W3110, […] MH at pH 8.5, up to 300 mM NaCl): less affected
- MIC E. coli W3110 […] 7.4 ([3]; Table S2, […] MH, pH 7.4): 0.5 µg/mL
- MIC E. coli W3110 […] 8.5 ([3]; Table S2, […] MH, pH 8.5): 0.25 µg/mL
- MIC E. coli W3110 Full MH 7.4 ([3]; Table S2, full MH, pH 7.4): 0.25 µg/mL
- MIC E. coli W3110 Full MH 8.5 ([3]; Table S2, full MH, pH 8.5): < 0.1 µg/mL
- MIC K. pneumoniae NCTC418 […] 7.4 ([4]; […] MH, pH 7.4): 0.5 µg/mL
- MIC K. pneumoniae NCTC418 […] 8.5 ([4]; […] MH, pH 8.5): 0.5 µg/mL
- MIC K. pneumoniae NCTC418 Full MH 7.4 ([4]; full MH, pH 7.4): 0.25 µg/mL
- MIC K. pneumoniae NCTC418 Full MH 8.5 ([4]; full MH, pH 8.5): 0.25 µg/mL
- MIC K. pneumoniae OXA-48 ([5]; MH pH 7.4, 16–20 h at 37 °C): 1 to 2 µg/mL
- MIC K. pneumoniae OXA-48 ([5]; Table S3, […] MH at pH 8.5): 1 to 2 µg/mL
- Antibacterial activity as a function of NaCl concentration ([6]; P. aeruginosa PAO1, […] MH at pH 8.5, up to 300 mM NaCl): less affected
- MIC P. aeruginosa PAO1 […] 7.4 ([6]; Table S2, […] MH, pH 7.4): 0.5 µg/mL
- MIC P. aeruginosa PAO1 […] 8.5 ([6]; Table S2, […] MH, pH 8.5): 0.5 µg/mL
- MIC P. aeruginosa PAO1 Full MH 7.4 ([6]; Table S2, full MH, pH 7.4): 0.5 µg/mL
- MIC P. aeruginosa PAO1 Full MH 8.5 ([6]; Table S2, full MH, pH 8.5): 0.25 µg/mL
- MIC P. aeruginosa PAO1 […] ([6]; diluted MH ([…] MH, pH 8.5) per Table 1 footnote b, 16–20 h at 37 °C): 0.5 µg/mL
- MIC P. aeruginosa PA14 2P4 [7]: 1 µg/mL
- MIC PA14 4.13 (phoQ) ([8]; MH pH 7.4, 16–20 h at 37 °C): 0.25 µg/mL
- MIC P. aeruginosa PA14 4.13 ([8]; Table S3, […] MH at pH 8.5): 0.5 µg/mL
- MIC PA14 4.18 (pmrB) ([9]; MH pH 7.4, 16–20 h at 37 °C): 1 µg/mL
- MIC P. aeruginosa PA14 4.18 ([9]; Table S3, […] MH at pH 8.5): 0.25 µg/mL
- MIC S. aureus COL (MRSA) […] 7.4 ([10]; Table S2, […] MH, pH 7.4): 8 µg/mL
- MIC S. aureus COL (MRSA) […] 8.5 ([10]; Table S2, […] MH, pH 8.5): 1 µg/mL
- MIC S. aureus COL (MRSA) Full MH 7.4 ([10]; Table S2, full MH, pH 7.4): > 64 µg/mL
- MIC S. aureus COL (MRSA) Full MH 8.5 ([10]; Table S2, full MH, pH 8.5): 2 µg/mL
- MIC S. aureus COL (MRSA) Full ([10]; full MH, pH 7.4, 16–20 h at 37 °C): >32 µg/mL
- MIC ZEM-1A ([11]; MH pH 7.4, 16–20 h at 37 °C): <0.13 µg/mL
- MIC P. aeruginosa ZEM-1A ([11]; Table S3, […] MH at pH 8.5): 1 µg/mL
- MIC ZEM9A ([12]; MH pH 7.4, 16–20 h at 37 °C): 2 µg/mL
- MIC P. aeruginosa ZEM9A ([12]; Table S3, […] MH at pH 8.5): 1 to 2 µg/mL
- MHC ([13]; Table S2): > 2000 µg/mL
- MHC [13]: >2000 µg/mL
- MIC B. cenocepacia [14]: >16 µg/mL
- MIC P. aeruginosa PA14 ([15]; MH pH 7.4, 16–20 h at 37 °C): <0.13 µg/mL
- MIC P. aeruginosa PA14 ([15]; Table S3, […] MH at pH 8.5, 16-20 hours at 37 °C): 0.25 µg/mL
- MIC S. aureus Newman ([16]; MH pH 7.4, 16–20 h at 37 °C): >16 µg/mL
- MIC S. aureus Newman ([16]; Table S3, […] MH at pH 8.5): 2 µg/mL
- MIC S. epidermis ([17]; MH pH 7.4, 16–20 h at 37 °C): >16 µg/mL
- MIC S. epidermis ([17]; Table S3, […] MH at pH 8.5): 2 µg/mL
- MIC S. maltophilia ([18]; MH pH 7.4, 16–20 h at 37 °C): 0.5 µg/mL
- MIC S. maltophilia ([18]; Table S3, […] MH at pH 8.5): 2 µg/mL
- Bacteria count after treatment at 10x MIC and 2 h of incubation at 37 °C (% of control) [19]: 1 % of control
- TEM micrographs, changes in treated bacteria [20]: blebbing and a disrupted outer membrane
